Measured values from patent US20150253330A1, “PRE-SELECTION OF SUBJECTS FOR THERAPEUTIC TREATMENT WITH AN HSP90 INHIBITOR BASED ON HYPOXIC STATUS” (Synta Pharmaceuticals Corp., priority 2012, published 2015).
Read-outs that look alike come from different tables or passages of the source. Blank lines part the entries; values can stand above or below the molecule they belong to.

Tests used:
HIF-1α and VEGF = test: Western blot of HIF-1α and VEGF in pancreatic cancer cell lines; type: cell-based; details: 50 nM, 24 h
Protocol: It's postulated that functional inhibition of Hsp90 by ganetespib can inhibit angiogenesis and growth in vitro and in vivo models of pancreatic cancer. PANC-1 and HPAC cell lines were treated with vehicle or G (50 nM) for 24 h and lysates were analyzed by Western blot. Egg CAM and matrigel plug assays were performed to quantify the effects of ganetespib on angiogenesis. Efficacy of ganetespib (100 mg/kg) was assessed in mice bearing HPAC and ASPC-1 xenograft.
Primary antibodies specific to Hsp90, HIF-1α, VEGF, Actin and HRP conjugated secondary antibodies (Santa Cruz Biotechnology, California and Cell Signaling Technology, USA) were used for Western blot. Ganetespib was provided by Synta Pharmaceuticals, Lexington, Mass. and Matrigel was purchased from BD Biosciences.
Cells were harvested at the end of treatment and lysed in the RIPA protein extraction buffer (Sigma-Aldrich, Saint Louis, Mo., USA) containing the protease inhibitor cocktail. Equal amounts of protein fractions of lysates were resolved over SDS-PAGE and transferred on to PVDF membrane. Membranes were incubated with primary antibodies followed by HRP-conjugated secondary antibodies. Bound antibodies were visualized using enhanced chemiluminescence. To confirm equal loading, membranes were verified and re-probed with an antibody specific for the housekeeping gene, anti-β-actin.

[1] = test system: AGS (wt-p53 and mut-KRAS); test: 72 hr viability by CTG, gastric cancer cells; type: cell-based; details: viability by CTG (upper)
Protocol: (§1) Many of the oncoproteins associated with gastric cancer and Hsp90 client proteins including HER2, MET, RAS and the FGFR family. Ganetespib was evaluated for its effect on the growth of AGS (wt-p53 and mut-KRAS) and MKN45 (wt-p53, wt-KRAS, MET amplified) gastric cancer cells.

[2] = test system: MKN45 (wt-p53, wt-KRAS, MET amplified); test: 72 hr viability by CTG, gastric cancer cells; type: cell-based; details: Homo sapiens, MKN-45, viability by CTG (upper)
Protocol: as §1

A549 NSCLC cells = test: Mouse xenograft tumor model, ganetespib and BEZ235 (Example 9); type: in vivo, mice; details: ganetespib 50 mg/kg weekly i.v.; BEZ235 10 mg/kg 5 times a week p.o.; particularly at later time points; FIG. 8
Excerpt: Female immunodeficient CD-1 (nude) mice (Charles River Laboratories, Wilmington, Mass.) were maintained in a pathogen-free environment, and all in vivo procedures were approved by the Synta Pharmaceuticals Corp. Institutional Animal Care and Use Committee. A549 NSCLC cells (7.5×10^6) were subcutaneously implanted into the animals. Mice bearing established tumors (100-200 mm^3) were randomized into treatment groups of 8 and i.v. dosed via the tail vein with either vehicle, ganetespib formulated in 10/18 DRD (10% DMSO, 18% Cremophor RH 40, 3.6% dextrose, 68.4% water) or p.o. dosed with BEZ235 formulated in PEG300/NMP (90% PEG300, 10% N-Methylpyrrolidone). Animals were treated with ganetespib at 50 mg/kg weekly or BEZ235 at 10 mg/kg 5 times a week, either alone or in combination. Tumor growth inhibition was determined as described previously. See Proia et al, PLoS One. 2011; 6(4):e18552.

RCC = details: cited from earlier work
colon cancer first line = details: cited from earlier work
colon cancer second line = details: cited from earlier work
[3] = test system: Chk1 and Chk2 phosphorylation; test: Western blot of Chk1 and Chk2 phosphorylation after bleomycin in Detroit 562 cells; type: cell-based; details: Detroit 562, bleomycin (5 μM)
Protocol: Protein expression was measured at the indicated time points after bleomycin treatment.
Cell extracts from Detroit 562 head and neck cancer cells were treated with 100 nM of ganetespib 24 hours prior to receiving the DNA damaging agent bleomycin (5 μM). Protein expression was measured at the indicated time points after bleomycin treatment.

pancreatic cancer = details: cited from earlier work
prostate cancer = details: cited from earlier work
melanoma = details: cited from earlier work

Molecule: 3-2,4-dihydroxy-5-isopropyl-phenyl)-4-(1-methyl-indol-5-yl)-5-hydroxy-[1,2,4]triazole [ganetespib]
HIF-1α and VEGF protein levels (HIF-1α and VEGF): significant reduction

IC50 [1]: 50 nM
IC50 [2]: 1 nM
Molecule: C=CCNC1=C2C[C@@H](C)C[C@H](OC)[C@H](O)[C@@H](C)/C=C(\C)[C@H](OC(N)=O)[C@@H](OC)/C=C\C=C(/C)C(=O)NC(=CC1=O)C2=O [17-AAG, 17-allyamino-geldanamycin]

Molecule: Cn1c(=O)n(-c2ccc(C(C)(C)C#N)cc2)c2c3cc(-c4cnc5ccccc5c4)ccc3ncc21 [BEZ235, reference compound]
Average tumor volume as compared to vehicle (A549 NSCLC cells): significantly reduced

IC50 [1]: 0.3 nM
IC50 [2]: 0.1 nM
Molecule: CC(=O)O[C@@]12CO[C@@H]1C[C@H](O)[C@@]1(C)C(=O)[C@H](O)C3=C(C)[C@@H](OC(=O)[C@H](O)[C@@H](NC(=O)OC(C)(C)C)c4ccccc4)C[C@@](O)([C@@H](OC(=O)c4ccccc4)[C@H]21)C3(C)C [Docetaxel]

Molecule: CO[C@H]1C[C@@H]2CC[C@@H](C)[C@@](O)(O2)C(=O)C(=O)N2CCCC[C@H]2C(=O)O[C@H]([C@H](C)C[C@@H]2CC[C@@H](OC(=O)C(C)(CO)CO)[C@H](OC)C2)CC(=O)[C@H](C)/C=C(\C)[C@@H](O)[C@@H](OC)C(=O)[C@H](C)C[C@H](C)/C=C/C=C/C=C/1C [temsirolimus]
OS HR (RCC; high LDH, P=0.002): 0.56
OS HR (RCC; normal LDH, P=0.51): 0.90

Molecule: Clc1ccc(Nc2nnc(Cc3ccncc3)c3ccccc23)cc1 [vatalanib]
PFS HR (colon cancer first line; LDH group not given, P=0.188): 0.88
PFS HR (colon cancer first line; high LDH, P=0.009): 0.67
PFS HR (colon cancer second line; LDH group not given, P=0.01): 0.83
PFS HR (colon cancer second line; high LDH, P<0.001): 0.63

Molecule: Bleomycin [reference compound]
Chk1 and Chk2 phosphorylation [3]: increased both Chk1 and Chk2 phosphorylation

Molecule: bevacizumab: anti-cancer agent cited from large randomized phase 2 and phase 3 studies
OS HR (pancreatic cancer; high LDH, 95% CI 0.43-0.82): 0.59
HR (pancreatic cancer; normal LDH, 95% CI 0.78-1.24): 0.98
OS HR (prostate cancer; high LDH, P=0.029): 0.80
OS HR (prostate cancer; normal LDH, P=0.87): 1.02
OS HR (melanoma; high LDH, 95% CI 0.32-0.88): 0.53
OS HR (melanoma; normal LDH, 95% CI 0.73-1.25): 1.25
